# Read-outs that look alike come from different tables or passages of the source. Where a SMILES comes first, the peptide text is derived from it. The star is where a group is joined. Cbz = O=C(OCc1ccccc1)*; CH2F = FC*
# How the values were obtained:
# SNP-induced cell death = SNP-induced cell death with ROS scavenger or MAPK pathway inhibitors; assay type: cell-based; settings: pretreatment or treatment with inhibitor
# From the text: However, as shown in FIGS. 11A and 11B, in cells pretreated with NAC having ROS scavenging ability, SNP-induced cell death was inhibited similarly in Nec-1 treated group (FIG. 11A). From this, it was confirmed again that ROS is associated with SNP-induced cell death. Further, SNP-induced cell death was inhibited by treatment with JNK inhibitor […] (SP), p38 inhibitor sB202190 (SB), and MEK, upstream of ERK, inhibitor PD98059 (PD) (FIG. 11B).
# HaCaT cells = test: SNP-induced cell death in HaCaT cells, MTT assay and phase-contrast microscopy; assay type: cell-based, human; settings: for SNP-induced cell death (cell viability, MTT assay): pretreated with 80 μM of Nec-1 and/or 20 μM of zVAD for 1 hour, followed by SNP
# Procedure: Whether SNP-induced cell death is improved by […] necrostatin-1 (Nec-1), and combination treatment of zVAD and Nec-1 was examined in HaCaT cells using MTT assay and phase-contrast microscopy. Cells were pretreated with 80 μM of Nec-1 and/or 20 μM of zVAD for 1 hour, followed by SNP treatment.
# [1] = tested on: RIP3 overexpressing cells; test: MLKL phosphorylation inhibition in RIP3 overexpressing cells; assay type: cell-based, human
# From the text: As shown in FIGS. 17A and 17B, the basal phosphorylation of MLKL in RIP3 overexpressing cells, and SNP-induced p-MLKL were eliminated by an RIP3 inhibitor dabrafenib (FIG. 17A).
# HaCaT and HEKn = test: TNFα-induced necroptosis stimuli (TCZ or TSZ) in keratinocytes; assay type: cell-based, human; settings: TNFα + zVAD + cyclohexamide or SMAC mimetic
# From the text: The immortal human keratinocyte line HaCaT and primary human epidermal keratinocyte isolated from neonatal foreskin (HEKn) responded to prototypical necroptosis stimuli induced by TNFα (TNFα[…]+zVAD+cyclohexamide or SMAC mimetic; also referred to herein as TCZ or TSZ). […] Additionally, from a knockout model, it was confirmed whether RIP3 and RIP1 affect TNF-induced cell death via necroptosis.
compound,measurement,setting,value
CC(=O)N[C@@H](CS)C(=O)O [NAC],SNP-induced cell death,SNP-induced cell death,inhibited
"COc1nccnc1NS(=O)(=O)c1ccc(NC(=O)/C=C/c2ccc([N+](=O)[O-])s2)cc1 [NSA, necrosulfonamide]",protection from acute SNP cytotoxicity / SNP-induced cell death,HEKn cells; HEKn cells,protected HEKn cells from acute SNP cytotoxicity more effectively than zVAD
"CN1C(=O)C(Cc2c[nH]c3ccccc23)NC1=S (stereo not drawn) [Nec-1, necrostatin-1]",SNP-induced cell death (phase-contrast microscopy and Annexin-V staining),HaCaT cells,inhibited
same,"SNP-induced cell death (cell viability, MTT assay)",HaCaT cells,reduced
same,SNP-induced cell death,SNP-induced cell death,inhibited
same,protection from acute SNP cytotoxicity / SNP-induced cell death,HEKn cells; HEKn cells,protected HEKn cells from acute SNP cytotoxicity more effectively than zVAD
COc1cccc(-c2cc(=O)c3ccccc3o2)c1N [PD98059],SNP-induced cell death,SNP-induced cell death,inhibited
O=C1c2ccccc2-c2n[nH]c3cccc1c23 [SP420119],SNP-induced cell death,SNP-induced cell death,inhibited
CC(C)(C)c1nc(-c2cccc(NS(=O)(=O)c3c(F)cccc3F)c2F)c(-c2ccnc(N)n2)s1 [dabrafenib],SNP-induced p-MLKL,[1]; SNP treated,eliminated
same,basal phosphorylation of MLKL,[1]; no SNP,eliminated
same,protection from acute SNP cytotoxicity / SNP-induced cell death,HEKn cells,protected HEKn cells from acute SNP cytotoxicity more effectively than zVAD
Oc1ccc(-c2nc(-c3ccncc3)c(-c3ccc(F)cc3)[nH]2)cc1 [sB202190],SNP-induced cell death,SNP-induced cell death,inhibited
CC(NC(=O)C(NC(=O)OCc1ccccc1)C(C)C)C(=O)NC(CC(=O)O)C(=O)CF (stereo not drawn) [zVAD] (Cbz-Val-Ala-Asp-CH2F; configuration not given here),TNF-induced cell death,HaCaT and HEKn,did not prevent
same,caspase-3 and PARP processing,HaCaT and HEKn,completely blocked
same,"SNP-induced cell death (cell viability, MTT assay)",HaCaT cells,reduced
